We go through three molecules from US20030212147A1, “Enzyme activated chemotherapy of liver cancer” (priority 2003, published 2003).

Entries after “also recorded” stand apart in the source; their conditions may differ.

The test system of one data set is HepG2 cells. Briefly: LDH-release cytotoxicity assay in HepG2 cells cultured in isotonic or hypertonic (AR-inducing) medium. In kind it is cell-based, human. The settings on record: for effect on HepG2 cells (LDH release): 50 μM ND; for toxic effect (LDH released into the medium): 5 hours. As for the experimental part:
HepG2 cells, a human liver cell line, were purchased from the American Type Culture Collection (Rockville, Md.). The basic (isotonic) medium was MEM medium supplemented with 10% fetal bovine serum, 100 U/ml penicillin, 100 μg/ml streptomycin, 0.1 mM MEM non-essential amino acids, and 1 mM sodium pyruvate. Medium was made hypertonic by adding NaCl to 100 mM, and the osmolarity was about 500 mosmol/kg as determined by osmometer. ND was dissolved in 20% ethanol to make a 50 mM stock solution. NQ was dissolved in 100% ethanol to make a 50 mM stock solution. AL1576 was dissolved in 20 mM NaOH to make a 20 mM stock solution.
Cells were first cultured in isotonic medium until 70% confluent. The medium was then made hypertonic by NaCl and incubated for 72 hours. The cells were then seeded onto 24-well plate at 8×10^4 cells/well and incubated for 24 hours in hypertonic medium. Cells for isotonic control were processed in parallel except that no NaCl was added. ND and AR inhibitor AL1576 were added as indicated.
Cytotoxicity was measured by the percent of LDH (lactate dehydrogenase) released into the medium. LDH activity was determined by Cytotoxicity Detection Kit. The optical density of the colored product was measured at 492 and 690 nm by SpectraMax 340 Microplate reader (Molecular Devices). LDH released into the medium was measured by taking samples of the medium. Total LDH was determined by taking samples of cell extracts lysed by Triton X-100 at a final concentration of 1%.
For orientation: LDH leaks from cells whose membrane has failed.

The format of data set [1] is physicochemical. An excerpt:
Naphthalene is insoluble in water. […] Accordingly, ND, the metabolized product of naphthalene (see FIG. 1), rather than naphthalene, was used to test the cytotoxic activity of the drug that is activated AR overproduced by HepG2 cells.

For data set [2] the following is noted: rabbit cataract model; taken as the likely toxic level for oral administration; cited from earlier work.

As for `O=C1NC(=O)C2(N1)c1cc(F)ccc1-c1ccc(F)cc12` [AL1576, 2,7-difluorospirofluorene-9,5′-imidazolidine-2′4′-dione, reference compound], the “protection of HepG2 cells against the toxic effects of ND by the AR inhibitor” value in the data set with HepG2 cells (HepG2 cells in hypertonic medium with ND) is “can protect these cells against the toxic effects of ND”.
`OC1C=Cc2ccccc2C1O` (stereo not shown) [ND, naphthalene-1,2-dihydrodiol]: the “effect on HepG2 cells (LDH release)” value with HepG2 cells (hypertonic medium) and in the data set on HepG2 cells (isotonic medium) was “no effect” in each case. For the same molecule, the “toxic effect (LDH released into the medium)” value in the data set on HepG2 cells (500 μM ND, HepG2 cells in hypertonic medium (AR overexpressed)) is listed as “highly toxic”; with HepG2 cells (500 μM ND, HepG2 cells in isotonic medium), “no sign of toxic effects; also recorded: no toxic effect”. The “LDH released relative to that released by control cells (isotonic medium)” value with HepG2 cells (500 μM ND, hypertonic versus isotonic medium) is recorded as “more than 10 times”. In addition, the “sensitivity of HepG2 cells to ND in hypertonic versus isotonic medium” value in the data set with HepG2 cells (hypertonic versus isotonic medium) is reported as 10 times.
Regarding `c1ccc2ccccc2c1` [Naphthalene], in data set [1], the “behaviour when added to the medium” value is reported as “quickly precipitates” and the solubility in water result was “insoluble”. In data set [2], the “dose at which cataract and degeneration of the retina develop” value was “about 1 g/kg body weight”.
